{"source": "patent US11771637B2", "about": "“Skin care composition and method of using the same” (The Procter & Gamble Company, priority 2021, dated 2023)", "tested_on": "Antioxidant Response Element (ARE)", "assay": "ARE Assay (ARE-32 luciferase reporter cell line)", "format": "cell-based", "text": "This method provides a way to quantitate ARE activation using the ARE-32 reporter cell line available from CXR Biosciences. The ARE-32 cell line is a stable MCF7 cell line containing pGL8x-ARE (8 copies of the rat GST ARE linked to the luciferase gene) and pCDNA3.1, which contains the neomycin selectable marker. A detailed description of the ARE-32 cell line and its development and use can be found in “Generation of a Stable Antioxidant Response Element-Driven Reporter Gene Cell Line and Its Use to Show Redox-Dependent Activation of Nrf2 by Cancer Chemotherapeutic Agents.” Cancer Res 2006; 66(22): 10983-94. A general schematic for how an ARE reporter assay operates to identify agents that promote transcription off the ARE is described in U.S. Publication No. 2011/0262570.\nThe ARE Assay uses expanded and cryopreserved passaged stocks. The cells are expanded over 4-5 days in culture flasks and passaged every 3-4 days, when cells are approximately 80% confluent. When cells are >70% confluent or ready to seed into 96 well plates, the cells are trypsinized, seeded and grown in 96-well plates. After growing for 1 day in 96-well plates, the media is replaced with fresh treatment media (phenol red free, no FBS) and cells are treated with compounds and incubated overnight (24 hours). Post treatment, cells are rinsed with 1×PBS, lysed and receive the luciferase kit reagent and luminescence is measured.\nFrozen AREC32 cells (frozen in 90% FBS and 10% DMSO) are quickly thawed and placed in a 50 ml conical tube with 25 ml plating media. Centrifuge at 1500-2000 RPM for 5 minutes. Remove media without disturbing cell pellet. Re-suspend cells in 12 ml media and add to T-75 tissue culture flask. Cells should be at >80% confluency in 4-5 days and can be split 1:3 into T-150 flasks to grow cells for seeding plates if more cells are needed.\nCells are maintained and plated in 96-well plates with plating media. Subculture (passage cells) every 3-4 days or when ˜75-80% confluent. To passage cells, aspirate media from flask and add 6 ml 0.25% trypsin. Tilt flask in all directions to distribute the trypsin over the bottom of the flask and place in incubator. After 2-3 minutes observe cells under microscope to see if detached. If cells have not detached completely place in incubator for an additional 2-3 minutes. Once detached, add 6 ml maintenance media to neutralize trypsin and pipet into centrifuge tube. Centrifuge at 1200 RPM for 5 minutes. Remove media without disturbing cell pellet. Re-suspend pellet in 12 ml maintenance media and add to flask. If splitting or detaching cells from a T-150 flask double all volumes and follow same procedures.\nAspirate media from flask and add appropriate volume of 0.25% trypsin depending on size of flask (6 ml for T-75 and 12 ml for T-150 flask). Swirl flask to distribute trypsin on bottom of flask and return to incubator for 2-3 minutes. Observe cells under microscope. If cells have not detached completely place in incubator for an additional 2-3 minutes. Once cells are detached add DMEM equal to the volume of trypsin, mix gently and place in centrifuge tube. Centrifuge at […] for 5 minutes. Aspirate media without disturbing cell pellet. Re-suspend pellet in 10 ml DMEM. Dilute the cells 1:5 using 50 μl cells+200 μl DMEM. Use 20 μl of this dilution and 20 μl 0.4% trypan blue. Mix and add 10 μl/chamber to disposable hemocytometer and insert into Countess II Instrument. Non-viable cells will be blue, viable cells will be unstained. Cell seeding density may vary from ˜10,000 cells/well or more depending on cell passage growth. Cell density should be approx. 70-80% on day of treatment/dosing. […] Media must be free of phenol red.\nTert-Butylhydroquinone (tBHQ) (Aldrich, Cat #11,294-1). Prepare 100 mM stock (1M=166.21 mg/ml; 100 mM=16.62 mg/ml). Dilute to 750 μM (1:133) using 30 μl of 100 mM tBHQ and […] treatment media. 2 μl of positive control should yield a final concentration of 7.5 μM in the test well. […]", "note": "“And” between values parts separate entries of the source, which are not always exact repeats. Equal values may be shown once. No end group written: not given here. *: point of attachment. Palmitoyl = CCCCCCCCCCCCCCCC(=O)*", "data": [{"compound": "NC(=O)c1cccnc1", "note": "[N, niacinamide, reference compound]", "values": [{"measurement": "Average Net Luminescence N", "setting": "N 1 ppm alone", "result": 8}, {"measurement": "Average Net Luminescence N", "setting": "N 10 ppm alone", "result": 12}, {"measurement": "Average Net Luminescence N", "setting": "N 50 ppm alone", "result": 45}, {"measurement": "Average Net Luminescence N", "setting": "N 500 ppm alone", "result": 53}, {"measurement": "Average Net Luminescence N", "setting": "Table 3, N 500 ppm alone", "result": 45}]}, {"compound": "acetyl tetrapeptide-11 (Ac-PPYL)", "values": [{"measurement": "Average Net Luminescence Ac-PPYL", "setting": "Ac-PPYL 0.05 ppm alone", "result": "12 and 19.4 and 20"}, {"measurement": "Average Net Luminescence Ac-PPYL", "setting": "Ac-PPYL 0.1 ppm alone", "result": "22 and 15.7"}, {"measurement": "Average Net Luminescence Ac-PPYL", "setting": "Ac-PPYL 0.5 ppm alone", "result": "14.7 and 26"}, {"measurement": "Average Net Luminescence Ac-PPYL", "setting": "Ac-PPYL 1 ppm alone", "result": "56 and 51"}, {"measurement": "Average Net Luminescence Ac-PPYL", "setting": "Ac-PPYL 2 ppm alone", "result": "64 and 61"}, {"measurement": "Average Net Luminescence Ac-PPYL", "setting": "Table 3, Ac-ppyl 2 ppm alone", "result": 57}]}, {"compound": "palmitoyl pentapeptide-4 (Palmitoyl-KTTKS) [Pal-KTTKS]", "values": [{"measurement": "Average Net Luminescence Pal-kttks", "setting": "Pal-KTTKS 1 ppm alone", "result": 24.3}, {"measurement": "Average Net Luminescence Pal-kttks", "setting": "Table 3, Pal-kttks 1 ppm alone", "result": 21}]}]}
